Source: patent US5807535A, “Metal complexes of hydroxyaryl containing aminocarboxylic acid chelating agents” (Australian Nuclear Science & Technology Organisation, priority 1992, dated 1998)
Each block holds one molecule with its values, some of them ahead of it.

Key:
[1] = Biodistribution of 67Ga complexes in mice; type: in vivo, balb/c mice
Experimental: To ligand (50 μL, 10 mg/mL, 0.2 M NaOAc, […]) was added ^67 Ga citrate (18.5 MBq) and the resultant mixture diluted to 1 mL (0.2 M NaOAc, pH 7). The pH was adjusted to 12 with 1 M NaOH (20 μL) and heated at 40° C. for 40 min. The final volume was adjusted (to 5 mL) with saline and sterilised by filtering through a 0.22 μm filter.
Each animal was injected via tail vein with ^67 Ga complex (100 μL, ~3.7×10^5 Bq). Animals were sacrificed at various time intervals (5 animals per time point/6 time points). Data are illustrated in FIG. 26-30 and in Tables 13-17.
Each ^67 Ga-ligand complex has been evaluated in balb/c mice. […] (see FIG. 26-30).

[2] = Radiolabelling of chelators with 64Cu and 67Cu; type: physicochemical; settings: ligand:metal ratio 4:1, ITLC
Experimental: (§1) A typical procedure involved the dissolving Cu-67 20 μl of original stock in an acetate buffer (0.2 M; pH 4.5) to a total volume of 500 μl. To this solution was added 500 μl of the ligand (20 mg/ml) solution in acetate buffer. The mixture was then left to react at 37° C. for 20 minutes. ITLC confirmed the labelling was greater than >95%.

[3] = Complexation of (1) with 166Dy and 166Ho; type: physicochemical; settings: 166Dy/166Ho, within 40 mins at RT
Experimental: Radiolabelling with of (1) with ^166 Dy and ^166 Ho and the serum stability of the complex formed has been investigated. A typical procedure involves dissolving (1) (2.6 10^-4 M) in 1.0 M NaOH (150 μl) and then adding saline (669 μl). Then equal volume of ligand mixture and the ^166 Dy/^166 Ho in 0.2 M NaAc (pH to 4.5) are mixed. The complexation is monitored by ITLC-SG.

[4] = Effect of pH on radiolabelling ligand (5) with 64/67Cu; type: physicochemical
Experimental: Radiolabelling with ^64/67 Cu was investigated with ligand (5) over a range of pHs (see Table B). Conditions employed are similar to that reported above for where the ^64/67 Cu in appropriate buffer was added directly to a buffered solution of ligand (5). Rate and percent of complexation was monitored over time by ITLC-SG. Mobile phase employed was methanol:water:ammonia (9:1: trace amounts). The copper complex moves with the solvent front while the free copper is retained at the origin.

[5] = Biodistribution of Copper-67 complex of (5); type: in vivo, Balb/c mice; settings: for biodistribution L. Int. / biodistribution S. Int. / biodistribution blood / biodistribution bone / biodistribution brain / biodistribution heart / biodistribution kidney / biodistribution liver / biodistribution lung / biodistribution muscle / biodistribution pancreas / biodistribution skin / biodistribution spleen / biodistribution stomach / biodistribution tail / biodistribution urine: 67Cu, mice
Experimental: as §1
The biodistribution of the copper-67 complex of ligand (5) was evaluated in balb/c mice (5 animals per time point) at 1, 3, 5, 10, 30 minute time intervals.

[6] = Cu-67, over the 30 minute period

biodistribution bone ([1]; 1 min): 5.07 % ID
biodistribution kidney ([1]; 1 min): 9.28 % ID
biodistribution liver ([1]; 1 min): 15.45 % ID
biodistribution muscle ([1]; 1 min): 22.75 % ID
biodistribution skin ([1]; 1 min): 11.72 % ID
biodistribution spleen ([1]; 1 min): 0.29 % ID
biodistribution bone ([1]; 3 min): 3.30 % ID
biodistribution kidney ([1]; 3 min): 5.26 % ID
biodistribution liver ([1]; 3 min): 24.21 % ID
biodistribution muscle ([1]; 3 min): 12.70 % ID
biodistribution skin ([1]; 3 min): 13.76 % ID
biodistribution spleen ([1]; 3 min): 0.14 % ID
biodistribution bone ([1]; 5 min): 2.83 % ID
biodistribution kidney ([1]; 5 min): 4.37 % ID
biodistribution liver ([1]; 5 min): 25.79 % ID
biodistribution muscle ([1]; 5 min): 12.14 % ID
biodistribution skin ([1]; 5 min): 13.02 % ID
biodistribution spleen ([1]; 5 min): 0.1 % ID
biodistribution bone ([1]; 10 min): 2.20 % ID
biodistribution kidney ([1]; 10 min): 1.91 % ID
biodistribution liver ([1]; 10 min): 22.77 % ID
biodistribution muscle ([1]; 10 min): 26.13 % ID
biodistribution skin ([1]; 10 min): 8.47 % ID
biodistribution spleen ([1]; 10 min): 0.06 % ID
biodistribution bone ([1]; 30 min): 0.50 % ID
biodistribution kidney ([1]; 30 min): 0.57 % ID
biodistribution liver ([1]; 30 min): 10.11 % ID
biodistribution muscle ([1]; 30 min): 1.80 % ID
biodistribution skin ([1]; 30 min): 1.56 % ID
biodistribution spleen ([1]; 30 min): 0.01 % ID
biodistribution kidney ([1]; 120 min): 0.05 % ID
biodistribution liver ([1]; 120 min): 0.88 % ID
biodistribution muscle ([1]; 120 min): 0.48 % ID
biodistribution skin ([1]; 120 min): 0.24 % ID
biodistribution spleen ([1]; 120 min): 0.01 % ID
efficiency of labelling with Cu-67 [2]: > 95%
complexation [3]: > 99%
Structure (SMILES): O=C(O)CN(CCN(CC(=O)O)CC(=O)Nc1ccccc1O)CC(=O)Nc1ccccc1O [Compound 1]

biodistribution urine ([1]; 1 min): 6.30 % ID
biodistribution urine ([1]; 3 min): 8.94 % ID
biodistribution urine ([1]; 5 min): 15.34 % ID
biodistribution urine ([1]; 10 min): 14.23 % ID
biodistribution urine ([1]; 30 min): 7.76 % ID
biodistribution urine ([1]; 120 min): 3.55 % ID
rate of complexation ([4]; all pHs (pH 3.0-10.0)): complete within the first minute
complexation maintained for upto ([4]; pH 3.0-10.0): ≤ 2 h
biodistribution L. Int. ([5]; 1 min): 0.35 % Injected dose
biodistribution S. Int. ([5]; 1 min): 0.50 % Injected dose
biodistribution blood ([5]; 1 min): 5.86 % Injected dose
biodistribution bone ([5]; 1 min): 5.46 % Injected dose
biodistribution brain ([5]; 1 min): 0.23 % Injected dose
biodistribution heart ([5]; 1 min): 0.27 % Injected dose
biodistribution kidney ([5]; 1 min): 8.35 % Injected dose
biodistribution liver ([5]; 1 min): 5.71 % Injected dose
biodistribution lung ([5]; 1 min): 0.85 % Injected dose
biodistribution muscle ([5]; 1 min): 13.69 % Injected dose
biodistribution pancreas ([5]; 1 min): 0.20 % Injected dose
biodistribution skin ([5]; 1 min): 9.61 % Injected dose
biodistribution spleen ([5]; 1 min): 0.18 % Injected dose
biodistribution stomach ([5]; 1 min): 0.52 % Injected dose
biodistribution tail ([5]; 1 min): 8.27 % Injected dose
biodistribution urine ([5]; 1 min): 0.35 % Injected dose
biodistribution L. Int. ([5]; 3 min): 0.75 % Injected dose
biodistribution S. Int. ([5]; 3 min): 1.10 % Injected dose
biodistribution blood ([5]; 3 min): 4.76 % Injected dose
biodistribution bone ([5]; 3 min): 3.35 % Injected dose
biodistribution brain ([5]; 3 min): 0.22 % Injected dose
biodistribution heart ([5]; 3 min): 0.28 % Injected dose
biodistribution kidney ([5]; 3 min): 5.65 % Injected dose
biodistribution liver ([5]; 3 min): 8.48 % Injected dose
biodistribution lung ([5]; 3 min): 1.20 % Injected dose
biodistribution muscle ([5]; 3 min): 18.00 % Injected dose
biodistribution pancreas ([5]; 3 min): 0.11 % Injected dose
biodistribution skin ([5]; 3 min): 19.21 % Injected dose
biodistribution spleen ([5]; 3 min): 0.19 % Injected dose
biodistribution stomach ([5]; 3 min): 0.93 % Injected dose
biodistribution tail ([5]; 3 min): 5.19 % Injected dose
biodistribution urine ([5]; 3 min): 1.98 % Injected dose
biodistribution L. Int. ([5]; 5 min): 0.54 % Injected dose
biodistribution S. Int. ([5]; 5 min): 1.08 % Injected dose
biodistribution blood ([5]; 5 min): 4.05 % Injected dose
biodistribution bone ([5]; 5 min): 2.74 % Injected dose
biodistribution brain ([5]; 5 min): 0.23 % Injected dose
biodistribution heart ([5]; 5 min): 0.19 % Injected dose
biodistribution kidney ([5]; 5 min): 4.99 % Injected dose
biodistribution liver ([5]; 5 min): 9.04 % Injected dose
biodistribution lung ([5]; 5 min): 1.10 % Injected dose
biodistribution muscle ([5]; 5 min): 11.95 % Injected dose
biodistribution pancreas ([5]; 5 min): 0.12 % Injected dose
biodistribution skin ([5]; 5 min): 16.23 % Injected dose
biodistribution spleen ([5]; 5 min): 0.16 % Injected dose
biodistribution stomach ([5]; 5 min): 0.87 % Injected dose
biodistribution tail ([5]; 5 min): 5.36 % Injected dose
biodistribution urine ([5]; 5 min): 3.72 % Injected dose
biodistribution L. Int. ([5]; 10 min): 0.79 % Injected dose
biodistribution S. Int. ([5]; 10 min): 0.90 % Injected dose
biodistribution blood ([5]; 10 min): 2.33 % Injected dose
biodistribution brain ([5]; 10 min): 0.19 % Injected dose
biodistribution heart ([5]; 10 min): 0.18 % Injected dose
biodistribution kidney ([5]; 10 min): 4.48 % Injected dose
biodistribution liver ([5]; 10 min): 11.79 % Injected dose
biodistribution lung ([5]; 10 min): 1.20 % Injected dose
biodistribution muscle ([5]; 10 min): 8.38 % Injected dose
biodistribution pancreas ([5]; 10 min): 0.34 % Injected dose
biodistribution skin ([5]; 10 min): 16.46 % Injected dose
biodistribution spleen ([5]; 10 min): 0.16 % Injected dose
biodistribution stomach ([5]; 10 min): 0.80 % Injected dose
biodistribution tail ([5]; 10 min): 3.45 % Injected dose
biodistribution urine ([5]; 10 min): 4.71 % Injected dose
biodistribution L. Int. ([5]; 30 min): 0.31 % Injected dose
biodistribution S. Int. ([5]; 30 min): 0.71 % Injected dose
biodistribution blood ([5]; 30 min): 2.12 % Injected dose
biodistribution bone ([5]; 30 min): 2.05 % Injected dose
biodistribution brain ([5]; 30 min): 0.54 % Injected dose
biodistribution heart ([5]; 30 min): 0.20 % Injected dose
biodistribution kidney ([5]; 30 min): 3.38 % Injected dose
biodistribution liver ([5]; 30 min): 17.10 % Injected dose
biodistribution lung ([5]; 30 min): 1.29 % Injected dose
biodistribution muscle ([5]; 30 min): 7.45 % Injected dose
biodistribution pancreas ([5]; 30 min): 0.34 % Injected dose
biodistribution skin ([5]; 30 min): 14.14 % Injected dose
biodistribution spleen ([5]; 30 min): 0.19 % Injected dose
biodistribution stomach ([5]; 30 min): 1.22 % Injected dose
biodistribution tail ([5]; 30 min): 1.51 % Injected dose
biodistribution urine ([5]; 30 min): 1.33 % Injected dose
Structure (SMILES): Nc1ccc(O)c(NC(=O)CN(CCN(CC(=O)O)CC(=O)Nc2cc(N)ccc2O)CC(=O)O)c1 [Compound 5]
clearance from the kidneys, blood and urine [5, 6]: clears from the kidneys, blood and urine over the 30 minute period
uptake in the liver [5, 6]: active uptake of the complex in the liver
